Biological target: T1, Human skin fibroblasts (Homo sapiens, UniProt P04035)
T1 sequence (P04035 1-888): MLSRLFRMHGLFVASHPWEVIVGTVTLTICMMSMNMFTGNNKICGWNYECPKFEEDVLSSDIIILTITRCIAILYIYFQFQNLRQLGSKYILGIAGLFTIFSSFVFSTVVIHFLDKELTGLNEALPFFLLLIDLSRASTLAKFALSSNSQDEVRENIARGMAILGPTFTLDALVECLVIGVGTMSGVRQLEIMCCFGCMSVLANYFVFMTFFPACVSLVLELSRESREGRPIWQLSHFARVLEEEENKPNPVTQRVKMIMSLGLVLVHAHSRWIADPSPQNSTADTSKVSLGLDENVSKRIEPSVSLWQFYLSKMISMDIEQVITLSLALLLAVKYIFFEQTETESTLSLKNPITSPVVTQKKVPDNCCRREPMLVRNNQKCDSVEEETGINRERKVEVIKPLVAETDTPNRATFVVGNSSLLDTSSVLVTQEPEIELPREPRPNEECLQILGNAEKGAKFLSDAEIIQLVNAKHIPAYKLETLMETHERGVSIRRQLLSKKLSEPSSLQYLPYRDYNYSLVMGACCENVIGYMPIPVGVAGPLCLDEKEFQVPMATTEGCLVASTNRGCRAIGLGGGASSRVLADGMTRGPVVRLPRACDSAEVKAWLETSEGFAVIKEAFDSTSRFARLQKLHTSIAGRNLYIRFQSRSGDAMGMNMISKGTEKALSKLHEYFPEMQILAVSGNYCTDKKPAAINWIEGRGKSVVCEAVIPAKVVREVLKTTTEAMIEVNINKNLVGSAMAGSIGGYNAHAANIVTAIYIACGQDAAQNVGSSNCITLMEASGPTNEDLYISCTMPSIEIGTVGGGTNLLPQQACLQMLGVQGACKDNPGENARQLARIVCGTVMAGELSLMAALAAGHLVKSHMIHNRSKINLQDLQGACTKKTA
Assay: Cholesterol Synthesis in Human Skin Fibroblasts (14C-acetate incorporation into cholesterol)
Type: cell-based
Settings: inhibition of 14C-acetate incorporation into cholesterol; 30 minutes preincubation, 4 hours with acetate; read-out: Fibroblasts 150
Experimental: 3) Cholesterol Synthesis in Human Skin Fibroblasts
Compound selectivity favoring greater inhibitory activity in hepatic tissue would be an attribute for a cholesterol synthesis inhibitor. Therefore, in addition to evaluating cholesterol synthesis inhibitors in hepatocytes, these compounds are also tested for their activity as inhibitors of cholesterol synthesis in cultured fibroblasts. […]
a. Human Skin Fibroblast Cultures
Human skin fibroblasts (passage 7-27) are grown in Eagles' minimal essential medium (EM) containing 10% fetal calf serum. For each experiment, stock cultures are trypsonized to disperse the cell monolayer, counted, and plated in 35 mm tissue culture wells (5x10^S cells/2.0 ml). […]
Induced fibroblast cultures are washed with EMEM100 (Earle's minimal essential medium). […] The organic phase is dried under nitrogen, and the residue resuspended in chloroform:methanol (2:1) (100 µl), and the total sample spotted on silica gel (LK6D) thin-layer plates, V, VO and analyzed as described for hepatocytes.
Inhibition of cholesterol synthesis is determined by comparing the percent of label in the cholesterol peak from control and drug-treated cultures. Results are expressed as 150 values, and are derived from composite dose response curves from two or more experiments. A 95% confidence interval for the 150 value is also calculated from the composite dose response curves.

IC50: 2.5 µM
Substance: (S)-4-[[[4-(4-Fluorophenyl)-1,2-bis(1-methylethyl)-5-phenyl-1H-pyrrol-3-yl]-ethynyl]hydroxyphosphinyl]-3-hydroxybutanoic acid, dilithium salt [SQ 34,346]

Reference: patent publication EP0463456A1, “Phosphorus-containing HMG-CoA reductase inhibitors, new intermediates and their use” (E.R. SQUIBB & SONS, INC., priority 1990, dated 1992)
